# Patent publication US10168342B2, “Lipid probes and uses thereof” (THE SCRIPPS RESEARCH INSTITUTE, priority 2015, dated 2019)
# Read-outs that look alike come from different tables or passages of the source.
# Key:
# [1] = target: T1, AEA-DA lipid probe targets in Neuro2a cells (Mus musculus, UniProt P52875)
# T1 sequence (P52875 34-323): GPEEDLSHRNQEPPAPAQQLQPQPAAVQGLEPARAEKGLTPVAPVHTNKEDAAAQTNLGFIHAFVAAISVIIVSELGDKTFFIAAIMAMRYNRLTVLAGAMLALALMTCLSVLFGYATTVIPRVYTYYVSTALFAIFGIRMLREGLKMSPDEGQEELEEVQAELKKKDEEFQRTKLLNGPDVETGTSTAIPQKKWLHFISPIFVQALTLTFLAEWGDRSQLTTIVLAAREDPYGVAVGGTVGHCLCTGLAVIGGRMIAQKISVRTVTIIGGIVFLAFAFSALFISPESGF
# [2] = target: AEA-DA lipid probe targets in Neuro2a cells (Mus musculus, UniProt Q791T5)
# [3] = target: AEA-DA lipid probe targets in Neuro2a cells (Mus musculus, UniProt Q8C0L6)
# [4] = target: T2, AEA-DA lipid probe targets in Neuro2a cells (Mus musculus, UniProt Q8VI75)
# T2 sequence (Q8VI75 1-1082): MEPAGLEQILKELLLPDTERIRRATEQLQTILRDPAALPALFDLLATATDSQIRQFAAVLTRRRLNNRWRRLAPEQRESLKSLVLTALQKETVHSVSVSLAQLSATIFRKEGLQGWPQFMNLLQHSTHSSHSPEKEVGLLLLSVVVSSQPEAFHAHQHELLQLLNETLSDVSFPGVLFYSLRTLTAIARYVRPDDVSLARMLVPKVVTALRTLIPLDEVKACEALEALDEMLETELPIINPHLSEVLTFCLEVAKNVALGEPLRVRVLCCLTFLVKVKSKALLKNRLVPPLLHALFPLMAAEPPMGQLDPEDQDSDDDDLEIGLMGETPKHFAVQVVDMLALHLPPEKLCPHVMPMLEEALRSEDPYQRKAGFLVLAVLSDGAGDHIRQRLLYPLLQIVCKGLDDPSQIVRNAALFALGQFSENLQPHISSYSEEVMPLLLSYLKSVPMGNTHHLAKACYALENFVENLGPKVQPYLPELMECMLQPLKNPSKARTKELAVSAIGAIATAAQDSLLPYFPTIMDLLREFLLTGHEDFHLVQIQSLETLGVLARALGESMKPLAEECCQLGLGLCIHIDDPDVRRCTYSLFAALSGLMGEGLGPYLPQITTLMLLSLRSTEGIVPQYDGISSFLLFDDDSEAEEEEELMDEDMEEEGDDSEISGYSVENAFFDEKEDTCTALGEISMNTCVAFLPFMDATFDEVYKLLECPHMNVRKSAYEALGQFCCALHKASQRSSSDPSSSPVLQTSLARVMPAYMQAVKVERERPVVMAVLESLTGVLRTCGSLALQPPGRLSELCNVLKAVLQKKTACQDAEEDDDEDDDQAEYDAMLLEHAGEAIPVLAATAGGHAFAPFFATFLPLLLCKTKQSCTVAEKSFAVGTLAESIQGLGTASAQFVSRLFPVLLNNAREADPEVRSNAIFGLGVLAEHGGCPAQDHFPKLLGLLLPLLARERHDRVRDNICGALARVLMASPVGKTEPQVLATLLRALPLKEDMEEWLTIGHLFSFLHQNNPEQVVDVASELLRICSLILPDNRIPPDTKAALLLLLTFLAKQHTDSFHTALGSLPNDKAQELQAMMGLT
# [5] = target: AEA-DA lipid probe targets in Neuro2a cells (Mus musculus, UniProt Q91V04)
# [6] = target: T3, AEA-DA lipid probe targets in Neuro2a cells (Mus musculus, UniProt Q5SW19)
# T3 sequence (Q5SW19 1-1315): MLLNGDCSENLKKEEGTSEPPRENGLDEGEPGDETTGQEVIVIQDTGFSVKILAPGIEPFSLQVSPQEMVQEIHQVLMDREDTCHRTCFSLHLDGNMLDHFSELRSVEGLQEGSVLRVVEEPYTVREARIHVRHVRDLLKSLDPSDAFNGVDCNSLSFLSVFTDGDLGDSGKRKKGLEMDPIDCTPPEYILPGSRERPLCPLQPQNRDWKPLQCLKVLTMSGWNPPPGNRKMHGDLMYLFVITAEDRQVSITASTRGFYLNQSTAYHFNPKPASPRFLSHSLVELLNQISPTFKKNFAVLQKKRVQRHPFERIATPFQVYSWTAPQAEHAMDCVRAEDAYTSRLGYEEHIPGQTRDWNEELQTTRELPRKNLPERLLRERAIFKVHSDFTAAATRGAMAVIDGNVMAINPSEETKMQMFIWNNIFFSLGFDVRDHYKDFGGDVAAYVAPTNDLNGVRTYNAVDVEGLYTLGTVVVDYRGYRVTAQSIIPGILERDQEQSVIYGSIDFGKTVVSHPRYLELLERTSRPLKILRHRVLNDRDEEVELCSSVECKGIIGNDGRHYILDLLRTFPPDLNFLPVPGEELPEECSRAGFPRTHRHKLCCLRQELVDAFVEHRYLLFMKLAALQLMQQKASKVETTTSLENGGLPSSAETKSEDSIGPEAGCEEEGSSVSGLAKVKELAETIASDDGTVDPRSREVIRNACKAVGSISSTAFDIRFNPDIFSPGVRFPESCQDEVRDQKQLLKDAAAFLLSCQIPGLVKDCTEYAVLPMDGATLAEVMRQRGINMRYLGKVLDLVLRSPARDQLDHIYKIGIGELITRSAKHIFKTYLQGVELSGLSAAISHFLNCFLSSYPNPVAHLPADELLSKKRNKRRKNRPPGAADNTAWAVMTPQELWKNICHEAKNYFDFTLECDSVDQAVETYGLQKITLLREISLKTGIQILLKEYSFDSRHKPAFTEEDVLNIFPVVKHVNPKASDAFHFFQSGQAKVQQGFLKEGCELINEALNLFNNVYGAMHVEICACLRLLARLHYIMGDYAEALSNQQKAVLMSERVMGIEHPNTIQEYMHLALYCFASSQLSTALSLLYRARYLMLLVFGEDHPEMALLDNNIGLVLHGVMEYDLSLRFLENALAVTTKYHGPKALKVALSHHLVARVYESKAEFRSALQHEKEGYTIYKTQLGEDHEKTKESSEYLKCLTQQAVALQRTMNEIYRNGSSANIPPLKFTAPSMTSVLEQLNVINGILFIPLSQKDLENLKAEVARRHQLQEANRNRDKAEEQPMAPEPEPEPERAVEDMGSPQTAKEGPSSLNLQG
# Chain of AEA-DA lipid probe targets in Neuro2a cells (Mus musculus, UniProt Q91V04) (Q91V04 whole entry): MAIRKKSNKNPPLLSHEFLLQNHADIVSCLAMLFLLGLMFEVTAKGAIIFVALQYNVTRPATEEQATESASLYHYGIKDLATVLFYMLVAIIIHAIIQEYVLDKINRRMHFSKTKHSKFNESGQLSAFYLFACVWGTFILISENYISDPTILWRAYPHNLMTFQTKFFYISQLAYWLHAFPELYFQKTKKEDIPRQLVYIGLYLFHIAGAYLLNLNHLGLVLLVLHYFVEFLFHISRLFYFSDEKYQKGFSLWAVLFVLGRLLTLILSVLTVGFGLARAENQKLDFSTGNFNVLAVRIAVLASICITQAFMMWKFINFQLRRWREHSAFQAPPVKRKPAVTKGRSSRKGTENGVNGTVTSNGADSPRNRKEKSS
# Chain of AEA-DA lipid probe targets in Neuro2a cells (Mus musculus, UniProt Q791T5) (Q791T5 whole entry): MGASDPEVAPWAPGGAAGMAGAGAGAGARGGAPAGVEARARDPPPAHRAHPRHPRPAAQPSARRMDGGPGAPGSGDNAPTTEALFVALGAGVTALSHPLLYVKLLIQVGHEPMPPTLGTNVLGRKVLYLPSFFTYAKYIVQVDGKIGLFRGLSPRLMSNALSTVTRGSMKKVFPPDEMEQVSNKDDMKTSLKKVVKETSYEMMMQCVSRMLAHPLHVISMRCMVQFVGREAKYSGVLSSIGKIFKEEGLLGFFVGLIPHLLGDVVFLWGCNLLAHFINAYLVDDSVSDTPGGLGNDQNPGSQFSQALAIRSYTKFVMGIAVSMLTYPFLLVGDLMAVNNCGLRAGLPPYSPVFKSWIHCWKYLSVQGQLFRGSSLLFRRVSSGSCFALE
# Chain of AEA-DA lipid probe targets in Neuro2a cells (Mus musculus, UniProt Q8C0L6) (Q8C0L6 whole entry): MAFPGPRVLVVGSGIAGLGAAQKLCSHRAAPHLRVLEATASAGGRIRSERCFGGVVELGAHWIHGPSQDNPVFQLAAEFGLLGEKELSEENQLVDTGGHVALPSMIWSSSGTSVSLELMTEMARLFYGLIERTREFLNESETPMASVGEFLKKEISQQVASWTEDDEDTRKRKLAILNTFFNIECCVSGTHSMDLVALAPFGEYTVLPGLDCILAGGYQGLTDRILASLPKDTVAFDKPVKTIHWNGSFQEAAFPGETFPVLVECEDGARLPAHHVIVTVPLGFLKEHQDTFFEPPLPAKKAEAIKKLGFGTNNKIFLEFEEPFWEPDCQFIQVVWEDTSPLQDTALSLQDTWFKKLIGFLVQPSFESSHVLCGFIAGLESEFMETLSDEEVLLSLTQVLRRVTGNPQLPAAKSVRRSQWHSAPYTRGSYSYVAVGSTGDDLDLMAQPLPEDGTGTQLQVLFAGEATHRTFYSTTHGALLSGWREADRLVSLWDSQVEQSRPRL
Structure (SMILES),"SILAC ratio, Tmem165 ([1]; competitor 25 μM)",SILAC ratio Kiaa0664 ([6]; competitor 25 μM),SILAC ratio Mtch1 ([2]; competitor 25 μM),"SILAC ratio, Paox ([3]; competitor 25 μM)",SILAC ratio Ipo4 ([4]; competitor 25 μM),"SILAC ratio, Tram1 ([5]; competitor 25 μM)",other results
"CCCCC/C=C\C/C=C\C/C=C\C/C=C\CCCC(=O)NCCO [AEA, anandamide, reference compound]",,,,,,,"SILAC ratio, Tmem165 ([1]; competitor 200 μM): 1.5; SILAC ratio Mtch1 ([2]; competitor 200 μM): 1.4; SILAC ratio, Paox ([3]; competitor 200 μM): 7.5; SILAC ratio Ipo4 ([4]; competitor 200 μM): 1.5; SILAC ratio, Tram1 ([5]; competitor 200 μM): 2.9"
"O=C(/C=C/c1cccnc1)NCCCCC1CCN(C(=O)c2ccccc2)CC1 [FK-866, reference compound]",1.1,1.2,1.0,3.2,1.3,1.2,
"CN1CCN(C(=O)c2c(-c3ccccc3)c3cc([N+](=O)[O-])ccc3n2C)CC1 [KML110, (1-Methyl-5-nitro-3-phenyl-1H-indol-2-yl)(4-methylpiperazin-1-yl)methanone]",1.5,2.1,1.2,2.9,1.4,1.7,
"CN1CCN(C(=O)c2[nH]c3ccc([N+](=O)[O-])cc3c2-c2ccccc2)CC1 [MJN228, (4-Methylpiperazin-1-yl)(5-nitro-3-phenyl-1H-indol-2-yl)methanone]",1.2,2.2,1.2,3.2,1.3,1.8,"SILAC ratio, Tmem165 ([1]; competitor 10 μM): 1.0; SILAC ratio, Tmem165 ([1]; competitor 100 μM): 1.5; SILAC ratio Kiaa0664 ([6]; competitor 10 μM): 1.5; SILAC ratio Kiaa0664 ([6]; competitor 50 μM): 1.0; SILAC ratio Kiaa0664 ([6]; competitor 100 μM): 1.9; SILAC ratio Mtch1 ([2]; competitor 10 μM): 1.1; SILAC ratio Mtch1 ([2]; competitor 50 μM): 1.0; SILAC ratio Mtch1 ([2]; competitor 100 μM): 1.2; SILAC ratio, Paox ([3]; competitor 10 μM): 2.1; SILAC ratio, Paox ([3]; competitor 50 μM): 4.5; SILAC ratio, Paox ([3]; competitor 100 μM): 13.5; SILAC ratio Ipo4 ([4]; competitor 10 μM): 1.0; SILAC ratio Ipo4 ([4]; competitor 50 μM): 1.0; SILAC ratio Ipo4 ([4]; competitor 100 μM): 1.6; SILAC ratio, Tram1 ([5]; competitor 10 μM): 1.3; SILAC ratio, Tram1 ([5]; competitor 50 μM): 1.9; SILAC ratio, Tram1 ([5]; competitor 100 μM): 5.4"
"C=CCN(C)CCCCCCOc1ccc(C(=O)c2ccc(Br)cc2)c(F)c1 [Ro 48-8071, reference compound]",1.1,1.0,0.9,2.4,1.0,1.8,
